Literature values in patent publication US20170280761A1, “METHOD TO CONCENTRATE APOA-1 MIMETIC PEPTIDES TRANSGENICALLY EXPRESSED IN PLANTS” (The Regents of the University of California, priority 2014, published 2017).

How the values were obtained:
tumor invasiveness = conditions: administration of the 4F peptide
[1] = tested on: Hypoxia-inducible factor-1 (HIF-1); conditions: addition of the 4F peptide
[2] = tested on: epithelial ovarian cancer cells
ovarian cancer = conditions: for levels of lysophosphatidic acid (LPA) / tumor growth: administered either orally or by injection
[3] = molecular target: T1, scavenger receptor A (SR-A) (Homo sapiens, UniProt P21757)
T1 sequence (P21757 1-451): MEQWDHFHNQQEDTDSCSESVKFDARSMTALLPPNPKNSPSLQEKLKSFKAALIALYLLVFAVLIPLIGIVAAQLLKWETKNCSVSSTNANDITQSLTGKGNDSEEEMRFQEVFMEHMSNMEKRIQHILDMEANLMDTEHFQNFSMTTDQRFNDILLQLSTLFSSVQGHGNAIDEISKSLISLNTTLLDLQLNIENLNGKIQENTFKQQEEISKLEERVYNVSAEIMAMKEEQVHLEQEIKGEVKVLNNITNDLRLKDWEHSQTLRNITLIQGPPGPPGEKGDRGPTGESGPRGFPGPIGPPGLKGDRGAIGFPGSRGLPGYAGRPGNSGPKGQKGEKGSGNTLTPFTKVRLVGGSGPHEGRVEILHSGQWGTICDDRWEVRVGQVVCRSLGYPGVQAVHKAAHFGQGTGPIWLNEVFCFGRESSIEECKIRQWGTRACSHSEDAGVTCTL

C57BL/6J-Apc Min/+ mice = conditions: 4F in mouse chow
colon cancer = conditions: 4F added to mouse chow
[4] = mouse, in vivo

Row | inhibition of SR-A [3] | Sequence | tumor invasiveness (tumor invasiveness) | HIF-1 alpha induced in vitro by LPA [1] | antioxidant enzyme manganese superoxide dismutase (MnSOD) [2] | proliferation and ability to form tumors [2] | levels of lysophosphatidic acid (LPA) (ovarian cancer) | tumor growth (ovarian cancer) | expression of HIF-1 alpha in mouse ovarian tumor tissues (ovarian cancer; administration of the 4F peptide) | LPA levels (C57BL/6J-Apc Min/+ mice) | number and size of tumors in the intestinal tract (C57BL/6J-Apc Min/+ mice) | plasma LPA levels (colon cancer) | tumor angiogenesis (colon cancer) | tumor burden (colon cancer) | amount of intact 6F peptide found in the small intestine [4] | intact 6F peptide in the plasma [4] | intact 6F peptide in the small intestine [4]
1 | potent inhibitor | DWFKAFYDKVAEKFKEAF (Synthetic recombinantly expressed peptide) [4F] | inhibited | decreased | upregulated | inhibited | decreased | decreased | markedly decreased | decreased | reduced | decreased | decreased | decreased |  |  | 
2 |  | DWLKAFYDKFFEKFKEFF (Synthetic recombinantly expressed peptide) [6F] |  |  |  |  |  |  |  |  |  |  |  |  | 15.6±7.4 µg 6F per 200 mg small intestine | not in the plasma | found
3 |  | DWLKAFYDKVFEKFKEFF (Synthetic recombinantly expressed peptide) [5F] |  |  |  |  | decreased | decreased |  |  |  |  |  |  |  |  | 
